One test has as its target PI3K alpha (Homo sapiens (Human), UniProt P42336). The test can be described thus: Enzymatic PI3K alpha isoform inhibition (lipid kinase activity, Kinase-Glo luminescence). Conditions: Enzymatic assay. The test is classed as biochemical. Put shortly:
(§1)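 ATP-depletion format: 10 nM PI3K with 5 μg/mL phosphatidylinositol and 2 μM ATP, run to ~50% ATP consumption, then Kinase-Glo added and remaining ATP read by luminescence after 5 min. IC50 from 4-parameter logistic fit, typically over 8 concentrations 10–0.003 μM.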
A general note: Kinase-Glo reads ATP consumption through a luciferase reaction.

A further test addresses PI3K delta (Homo sapiens (Human), UniProt O00329). In words: Enzymatic PI3K delta isoform inhibition (lipid kinase activity, Kinase-Glo luminescence). The test is classed as biochemical. Conditions: Enzymatic assay. In outline:
as §1

The text below walks through data of patent US9539260B2, “Dihydro-benzo-oxazine and dihydro-pyrido-oxazine derivatives” (Novartis AG, priority 2012, dated 2017).

Bounds are passed on as bounds.

Sequence of PI3K alpha (P42336 other isoform, or with tags, fused parts or gaps): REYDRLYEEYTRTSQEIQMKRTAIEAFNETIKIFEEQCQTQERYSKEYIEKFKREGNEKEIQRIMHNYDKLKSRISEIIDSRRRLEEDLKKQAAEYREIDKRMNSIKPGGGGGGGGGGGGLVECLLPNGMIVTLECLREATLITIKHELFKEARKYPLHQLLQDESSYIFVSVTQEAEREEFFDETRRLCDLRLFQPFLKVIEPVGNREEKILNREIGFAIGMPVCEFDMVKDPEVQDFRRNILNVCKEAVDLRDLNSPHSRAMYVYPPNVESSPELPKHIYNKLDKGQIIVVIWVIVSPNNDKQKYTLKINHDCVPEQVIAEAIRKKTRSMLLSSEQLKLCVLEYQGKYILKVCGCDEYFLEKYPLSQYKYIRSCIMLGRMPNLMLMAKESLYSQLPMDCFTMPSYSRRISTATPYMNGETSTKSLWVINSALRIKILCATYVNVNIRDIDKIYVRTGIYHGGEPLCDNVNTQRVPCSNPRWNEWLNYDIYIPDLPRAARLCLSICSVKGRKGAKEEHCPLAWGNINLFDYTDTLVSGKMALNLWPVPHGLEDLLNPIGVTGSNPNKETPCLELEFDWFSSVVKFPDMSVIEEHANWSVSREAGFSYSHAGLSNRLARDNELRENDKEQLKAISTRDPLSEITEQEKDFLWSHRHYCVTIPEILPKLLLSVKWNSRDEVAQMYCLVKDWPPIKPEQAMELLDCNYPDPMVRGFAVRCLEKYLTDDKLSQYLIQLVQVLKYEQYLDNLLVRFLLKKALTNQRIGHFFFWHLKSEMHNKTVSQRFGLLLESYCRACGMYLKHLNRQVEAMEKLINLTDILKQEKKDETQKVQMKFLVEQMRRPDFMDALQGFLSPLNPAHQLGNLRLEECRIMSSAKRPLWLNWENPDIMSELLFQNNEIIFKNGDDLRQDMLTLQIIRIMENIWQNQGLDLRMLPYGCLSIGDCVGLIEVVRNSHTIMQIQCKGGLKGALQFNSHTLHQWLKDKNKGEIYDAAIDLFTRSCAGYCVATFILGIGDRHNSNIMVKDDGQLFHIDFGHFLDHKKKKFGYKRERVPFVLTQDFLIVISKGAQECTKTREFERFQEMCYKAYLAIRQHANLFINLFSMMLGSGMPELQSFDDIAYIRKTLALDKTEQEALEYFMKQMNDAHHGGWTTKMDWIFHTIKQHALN
Sequence of PI3K delta (O00329 other isoform, or with tags, fused parts or gaps linker GGGGGG): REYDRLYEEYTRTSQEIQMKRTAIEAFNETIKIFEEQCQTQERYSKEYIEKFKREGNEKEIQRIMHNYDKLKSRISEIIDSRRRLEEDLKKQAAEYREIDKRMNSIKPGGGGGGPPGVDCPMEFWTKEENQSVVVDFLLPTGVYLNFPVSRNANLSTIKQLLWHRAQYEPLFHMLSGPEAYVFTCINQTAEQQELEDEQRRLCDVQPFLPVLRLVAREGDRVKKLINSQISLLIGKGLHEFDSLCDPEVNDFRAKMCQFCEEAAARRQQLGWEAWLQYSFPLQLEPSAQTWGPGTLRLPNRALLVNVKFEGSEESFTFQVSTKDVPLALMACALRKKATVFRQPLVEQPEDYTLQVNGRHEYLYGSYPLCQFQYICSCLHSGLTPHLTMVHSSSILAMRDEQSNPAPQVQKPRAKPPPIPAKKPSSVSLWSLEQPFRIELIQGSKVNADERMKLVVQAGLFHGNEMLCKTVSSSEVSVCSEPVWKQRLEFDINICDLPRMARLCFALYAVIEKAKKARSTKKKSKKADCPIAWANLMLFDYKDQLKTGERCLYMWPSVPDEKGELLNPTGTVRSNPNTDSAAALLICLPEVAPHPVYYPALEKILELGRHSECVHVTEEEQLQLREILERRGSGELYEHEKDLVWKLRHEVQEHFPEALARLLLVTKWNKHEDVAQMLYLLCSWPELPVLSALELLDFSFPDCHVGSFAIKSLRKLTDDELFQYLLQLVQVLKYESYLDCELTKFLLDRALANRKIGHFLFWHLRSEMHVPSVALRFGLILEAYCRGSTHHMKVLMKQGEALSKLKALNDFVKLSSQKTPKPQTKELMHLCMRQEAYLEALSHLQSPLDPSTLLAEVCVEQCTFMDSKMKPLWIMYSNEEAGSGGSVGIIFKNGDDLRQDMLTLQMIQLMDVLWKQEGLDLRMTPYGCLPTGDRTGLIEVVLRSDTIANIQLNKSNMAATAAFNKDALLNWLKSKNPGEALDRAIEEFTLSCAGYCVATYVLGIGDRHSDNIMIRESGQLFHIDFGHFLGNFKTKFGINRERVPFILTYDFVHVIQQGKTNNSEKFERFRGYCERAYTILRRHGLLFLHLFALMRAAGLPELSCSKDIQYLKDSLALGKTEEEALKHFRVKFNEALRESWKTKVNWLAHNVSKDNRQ

Broadly, the IC50 is the concentration needed to halve the response being measured. A high value points to a need for much substance. Consider `COc1ncc(N2CCOc3ccc(O[C@H]4CCN(C(=O)C5CCS(=O)(=O)C5)C4)cc32)cc1C` (single isomer, unassigned) [Example B27, (1,1-Dioxo-tetrahydro-1lambda*6*-thiophen-3-yl)-{(S)-3-[4-(6-methoxy-5-methyl-pyridin-3-yl)-3,4-dihydro-2H-benzo[1,4]oxazin-6-yloxy]-pyrrolidin-1-yl}-methanone], for which the concentration for half-maximal inhibition (IC50) on PI3K alpha is 2510 nM; against PI3K delta it was 55 nM.

As for `COc1ncc(N2CCOc3ccc(O[C@H]4CCN(C(=O)c5cnn(C)c5)C4)cc32)cc1C#N` [Example D27, 2-Methoxy-5-{6-[(S)-1-(1-methyl-1H-pyrazole-4-carbonyl)-pyrrolidin-3-yloxy]-2,3-dihydro-benzo[1,4]oxazin-4-yl}-nicotinonitrile], the IC50 turned out to be 1570 nM against PI3K alpha and 64 nM against PI3K delta.

For the compound `CCS(=O)(=O)c1ccc(N2CCOc3ccc(O[C@H]4CCN(C(=O)C5CCOCC5)C4)cc32)cn1` [Example B87, {(S)-3-[4-(6-Ethanesulfonyl-pyridin-3-yl)-3,4-dihydro-2H-benzo[1,4]oxazin-6-yloxy]-pyrrolidin-1-yl}-(tetrahydro-pyran-4-yl)-methanone], the IC50 on PI3K alpha worked out at 7090 nM; at PI3K delta, 29 nM.

Turning to `COc1ncc(N2CCOc3ccc(O[C@H]4CCN(C(=O)c5cnco5)C4)cc32)cc1F` [Example B103, {(S)-3-[4-(5-Fluoro-6-methoxy-pyridin-3-yl)-3,4-dihydro-2H-benzo[1,4]oxazin-6-yloxy]-pyrrolidin-1-yl}-oxazol-5-yl-methanone], the half-inhibitory concentration (IC50) against PI3K alpha came to 241 nM; against PI3K delta, 46 nM.

On to `CCC(=O)N1CC[C@H](Oc2ccc3c(c2)N(c2ccc(OC)c(C(F)(F)F)c2)CCO3)C1` [Example A41, 1-{(S)-3-[4-(4-Methoxy-3-trifluoromethyl-phenyl)-3,4-dihydro-2H-benzo[1,4]oxazin-6-yloxy]-pyrrolidin-1-yl}-propan-1-one], for which the half-maximal inhibitory concentration (IC50) worked out at 2790 nM against PI3K alpha and 296 nM against PI3K delta.

Take `COc1ncc(N2CCOc3ccc(O[C@H]4CCN(C(=O)C5CCS(=O)(=O)C5)C4)cc32)cc1C` (stereo partly drawn) [Example B13, (1,1-Dioxo-tetrahydro-1lambda*6*-thiophen-3-yl)-{(S)-3-[4-(6-methoxy-5-methyl-pyridin-3-yl)-3,4-dihydro-2H-benzo[1,4]oxazin-6-yloxy]-pyrrolidin-1-yl}-methanone]: the IC50 against PI3K alpha came to 862 nM; against PI3K delta, 62 nM.

For the compound `COc1ncc(N2CCOc3ccc(O[C@H]4CCN(C(=O)C5CNC(=O)C5)C4)cc32)cc1C#N` (stereo partly drawn) [Example C19, 2-Methoxy-5-{6-[(S)-1-(5-oxo-pyrrolidine-3-carbonyl)-pyrrolidin-3-yloxy]-2,3-dihydro-benzo[1,4]oxazin-4-yl}-nicotinonitrile], the concentration for half-maximal inhibition (IC50) against PI3K alpha turned out to be 488 nM; against PI3K delta, 21 nM.

With `COc1ncc(N2CCOc3ccc(O[C@H]4CCN(C(=O)c5cnccn5)C4)cc32)cc1C#N` [Example C15, 2-Methoxy-5-{6-[(S)-1-(pyrazine-2-carbonyl)-pyrrolidin-3-yloxy]-2,3-dihydro-benzo[1,4]oxazin-4-yl}-nicotinonitrile], the IC50 was found to be 383 nM at PI3K alpha and 17 nM against PI3K delta.

For `CCC(=O)N1C[C@H](Oc2ccc3c(c2)N(c2cnc(OC)c(C#N)c2)CCO3)CO1` [Example D25, 2-Methoxy-5-[6-((S)-2-propionyl-isoxazolidin-4-yloxy)-2,3-dihydro-benzo[1,4]oxazin-4-yl]-nicotinonitrile], the 50% inhibitory concentration (IC50) against PI3K alpha was > 9100 nM; against PI3K delta it was 2690 nM.

Regarding `COc1ncc(N2CCOc3ccc(O[C@H]4CCN(C(=O)c5ccn(C)n5)C4)cc32)cc1C` [Example B21, {(S)-3-[4-(6-Methoxy-5-methyl-pyridin-3-yl)-3,4-dihydro-2H-benzo[1,4]oxazin-6-yloxy]-pyrrolidin-1-yl}-(1-methyl-1H-pyrazol-3-yl)-methanone], the figures for the IC50 against PI3K alpha and against PI3K delta were 666 nM and 13 nM, respectively.

`COc1ncc(N2CCOc3cnc(O[C@H]4CCN(C(=O)c5cn(C)cn5)C4)cc32)cc1C(F)(F)F` [Example E7, {(S)-3-[1-(6-Methoxy-5-trifluoromethyl-pyridin-3-yl)-2,3-dihydro-1H-pyrido[3,4-b][1,4]oxazin-7-yloxy]-pyrrolidin-1-yl}-(1-methyl-1H-imidazol-4-yl)-methanone]: the values for the 50% inhibitory concentration (IC50) at PI3K alpha and against PI3K delta were 133 nM and 22 nM, respectively.

Consider `Cc1cc(N2CCOc3ccc(O[C@H]4CCN(C(=O)C5CCOCC5)C4)c(C)c32)cnc1S(C)(=O)=O` [W, {(S)-3-[4-(6-Methanesulfonyl-5-methyl-pyridin-3-yl)-5-methyl-3,4-dihydro-2H-benzo[1,4]oxazin-6-yloxy]-pyrrolidin-1-yl}-(tetrahydro-pyran-4-yl)-methanone], for which the values for the concentration for half-maximal inhibition (IC50) against PI3K alpha and on PI3K delta were 2980 nM and 56 nM, respectively.

With `COCCC(=O)N1CC[C@H](Oc2ccc3c(c2)N(c2cnc(OC)c(F)c2)CCO3)C1` [Example B114, 1-{(S)-3-[4-(5-Fluoro-6-methoxy-pyridin-3-yl)-3,4-dihydro-2H-benzo[1,4]oxazin-6-yloxy]-pyrrolidin-1-yl}-3-methoxy-propan-1-one], the IC50 was 1440 nM against PI3K alpha and 71 nM against PI3K delta.

In the case of `COc1ncc(N2CCOc3ccc(O[C@H]4CCN(C(=O)[C@@H]5CCNC5)C4)cc32)cc1C#N` [Example D40, 2-methoxy-5-{6-[(S)-1-((R)-pyrrolidine-3-carbonyl)-pyrrolidin-3-yloxy]-2,3-dihydro-benzo[1,4]oxazin-4-yl}-nicotinonitrile], the concentration for half-maximal inhibition (IC50) against PI3K alpha was 704 nM; against PI3K delta, 25 nM.

Take `COc1ncc(N2CCOc3ccc(O[C@H]4CCN(C(=O)N5CCOCC5)C4)cc32)cc1C#N` [Example D34, 2-Methoxy-5-{6-[(S)-1-(morpholine-4-carbonyl)-pyrrolidin-3-yloxy]-2,3-dihydro-benzo[1,4]oxazin-4-yl}-nicotinonitrile]: the half-inhibitory concentration (IC50) against PI3K alpha amounted to 273 nM; at PI3K delta, 9 nM.

Regarding `COc1cc(N2CCOc3ccc(O[C@H]4CCN(C(=O)C5COCCO5)C4)cc32)cnc1OC` (stereo partly drawn) [Example B39, {(S)-3-[4-(5,6-Dimethoxy-pyridin-3-yl)-3,4-dihydro-2H-benzo[1,4]oxazin-6-yloxy]-pyrrolidin-1-yl}-[1,4]dioxan-2-yl-methanone], the IC50 at PI3K alpha was 176 nM; at PI3K delta, 11 nM.

Turning to `COc1ncc(N2CCOc3ccc(O[C@H]4CCN(C(=O)C5COCCO5)C4)cc32)cc1F` (single isomer, unassigned) [Example H15], the figures for the half-maximal inhibitory concentration (IC50) against PI3K alpha and on PI3K delta were 724 nM and 8 nM, respectively.

Consider `Cc1cc(N2CCOc3ccc(O[C@H]4CCN(C(=O)C5COCCO5)C4)cc32)cnc1S(C)(=O)=O` (stereo partly drawn) [Example B36, [1,4]Dioxan-2-yl-{(S)-3-[4-(6-methanesulfonyl-5-methyl-pyridin-3-yl)-3,4-dihydro-2H-benzo[1,4]oxazin-6-yloxy]-pyrrolidin-1-yl}-methanone], for which the results for the IC50 against PI3K alpha and at PI3K delta were 801 nM and < 3 nM, respectively.

Turning to `Cc1cc(N2CCOc3ccc(O[C@H]4CCN(S(=O)(=O)C5CC5)C4)cc32)cnc1S(C)(=O)=O` [Example B83, 6-((S)-1-Cyclopropanesulfonyl-pyrrolidin-3-yloxy)-4-(6-methanesulfonyl-5-methyl-pyridin-3-yl)-3,4-dihydro-2H-benzo[1,4]oxazine], the results for the concentration for half-maximal inhibition (IC50) on PI3K alpha and against PI3K delta were 214 nM and 29 nM, respectively.

Regarding `Cc1cc(N2CCOc3ccc(O[C@H]4CCN(C(=O)c5cn(C)cn5)C4)cc32)cnc1S(C)(=O)=O` [Example B8, {(S)-3-[4-(6-Methanesulfonyl-5-methyl-pyridin-3-yl)-3,4-dihydro-2H-benzo[1,4]oxazin-6-yloxy]-pyrrolidin-1-yl}-(1-methyl-1H-imidazol-4-yl)-methanone], the values for the half-maximal inhibitory concentration (IC50) on PI3K alpha and at PI3K delta were 188 nM and 25 nM, respectively.

On to `COc1ncc(N2CCOc3ccc(O[C@H]4CCN(C(=O)c5cn(C)cn5)C4)cc32)cc1C` [Example B89, {(S)-3-[4-(6-Methoxy-5-methyl-pyridin-3-yl)-3,4-dihydro-2H-benzo[1,4]oxazin-6-yloxy]-pyrrolidin-1-yl}-(1-methyl-1H-imidazol-4-yl)-methanone], for which the IC50 was 133 nM against PI3K alpha and 9 nM against PI3K delta.

Turning to `Cc1cc(N2CCOc3ccc(O[C@H]4CCN(C(=O)C5CCOCC5)C4)cc32)ccn1` [Example A19, {(S)-3-[4-(2-Methyl-pyridin-4-yl)-3,4-dihydro-2H-benzo[1,4]oxazin-6-yloxy]-pyrrolidin-1-yl}-(tetrahydro-pyran-4-yl)-methanone], the figures for the IC50 at PI3K alpha and against PI3K delta were 7550 nM and 380 nM, respectively.

On to `COc1ncc(N2CCOc3ccc(O[C@H]4CCN(C(=O)c5cnco5)C4)cc32)cc1C#N` [Example D32, 2-Methoxy-5-{6-[(S)-1-(oxazole-5-carbonyl)-pyrrolidin-3-yloxy]-2,3-dihydro-benzo[1,4]oxazin-4-yl}-nicotinonitrile], for which the IC50 against PI3K alpha is 94 nM; on PI3K delta, 9 nM.

On to `COc1ncc(N2CCOc3ccc(O[C@H]4CCN(C(=O)c5cncn5C)C4)cc32)cc1C` [Example B88, {(S)-3-[4-(6-Methoxy-5-methyl-pyridin-3-yl)-3,4-dihydro-2H-benzo[1,4]oxazin-6-yloxy]-pyrrolidin-1-yl}-(3-methyl-3H-imidazol-4-yl)-methanone], for which the IC50 at PI3K alpha is 234 nM; against PI3K delta, 8 nM.

Consider `COc1ncc(N2CCOc3ccc(O[C@H]4CCN(C(=O)c5cn[nH]c5)C4)cc32)cc1C#N` [Example C10, 2-Methoxy-5-{6-[(S)-1-(1H-pyrazole-4-carbonyl)-pyrrolidin-3-yloxy]-2,3-dihydro-benzo[1,4]oxazin-4-yl}-nicotinonitrile], for which the values for the IC50 at PI3K alpha and against PI3K delta were 147 nM and 15 nM, respectively.
